Measurements published in patent publication US4481218A, “3-(2,2,2-Trimethylhydrazinium)propionate and method for the preparation and use thereof” (Institut Organicheskogo Sinteza Akademii Nauk Latviiskoi SSR, priority 1978, dated 1984).

Experiments:
[1] = solubility; assay type: physicochemical
Method: The compound according to the present invention, viz. 3-(2,2,2-trimethylhydrazinium)propionate comprises a colourless crystalline powder with a melting point of 254°-256° C. (from ethanol). […] (p.p.m.): 6.70 singlet, (CH3)3 N; 6.89, triplet, CH2,

[2] = system: white-breed young pigs; assay: growth stimulator efficiency in white-breed young pigs (Example 9, Table 4); assay type: in vivo, pig; settings: 0.02% by weight, 122 days
Method: The efficiency of the growth stimulator was tested on white-breed young pigs deprived of mother's milk with the body weight of about 20 kg, […], in each group.
The young pigs were in the same pig sty and serviced by one operator; all of the animals were on the same diet consisting of barley flour, green mass of a vetch-oat mixture and whey. The animals were fed two times a day with free watering. To the feedstuff of the test group there were added 200 mg of 3-(2,2,2-trimethylhydrazinium)propionate per 1 kg of dry substance of the feed-stuff (0.02% by weight of the active principle).

[3] = system: barley, oats, rye and wheat; assay: growth-controlling activity on plants; assay type: in vivo
Description: (§1) The study of specific activity of 3-(2,2,2-trimethylhydrazinium)-propionatewas effected on various animals: mice, rats, pigs, cattle, chickens, goslings, turkey poults and ducklings. The growth-controlling activity of this compound relative to plats has been studied on barley, oats, rye and wheat.

[4] = system: young rats; assay: growth stimulator efficiency in young rats (Example 10, Table 5); assay type: in vivo, rat
Method: (§2) The efficiency of the growth stimulator was studied on young rats. The experiment was carried out with nondescript young rats weighting about 75 g in groups of 30 animals in each. The growth stimulator was administered perorally to each rat as an aqueous solution at a rate of from 0.1 to 0.001% by weight of the consumed daily diet. The administration of the growth stimulator was effected every day during 10 days. The observation period was 20 days; the rats were weighed after every 4 days. […] On completion of the experiment the animals were killed and the parenchymatous organs and peripheral blood were analyzed.

[5] = system: chicks; assay: growth stimulant efficiency in chicks, 0.04% in feedstuff (Example 7, Table 2); assay type: in vivo; settings: 0.04% by weight in feedstuff
Method: (§3) The growth stimulator for animals and fowl containing 3-(2,2,2-trimethylhydrazinium)-propionate as the active principle is tested for efficiency. The test is conducted in chicks of 6 days of age, the test group consisting of 50 chicks and the control group--50 chicks. The test chicks were fed with a feedstuff containing 0.02% by weight of the active principle, the control group--only basic diet without the addition of the active principle. The chicks' diet contained, % by weight: barley--20, wheat--6, corn--40, sunflower and soya-bean grist--19, fish flour--7, meat-bone flour--3, yeast--5. One kilogram of the feedstuff contained 1.25 feeding unit, 3,135 kCal of exchange energy, 21% of a crude protein, 4% of crude cellulose and 197 g of digestable protein.
The experiment for testing efficiency of the growth stimulant for animals and fowl according to the present invention was carried out following the procedure similar to that described in the foregoing Example 6; added to the feedstuff was 0.04% by weight of the active principle based on the feedstuff weight. By the end of the 34-days' period the chicks of the test groups fed with the growth stimulant were 12.9% heavier.

[6] = system: microbless pig mini-sucklings; assay: growth stimulant efficiency in microbless pig mini-sucklings (Example 8, Table 3); assay type: in vivo
Method: The efficiency of the growth stimulant for animals according to the present invention was tested in feeding of microbless animals. The test was carried out in microbless pig mini-sucklings grown without under sterile conditions in a comparison with pig mini sucklings grown keeping to the requirements of sterile conditions, since birth and to the age of two-months, a feedstuff containing 0.04% by weight of the active principle. Their growth was compared to that of 10 sucklings grown without keeping to sterility conditions and the development of 7 microbless pig sucklings. By the end of the experiment the test pig sucklings were 17.2% heavier than the microbless pig sucklings given no growth stimulant and 18.2% heavier than the sucklings grown under nonsterile conditions and given no growth stimulator.

[7] = system: pubertal rats; assay: growth stimulator efficiency in pubertal rats (Example 11, Table 6); assay type: in vivo, rat
Method: as §2
The growth stimulator efficiency was studied on pubertal rats. The experiment conditions were similar to those described in the foregoing Example 10.

[8] = system: animals and fowl; assay: specific (growth-stimulating) activity on animals and fowl, general; assay type: in vivo
Description: as §1

[9] = in vivo; design: species or system white mice; settings: mouse, ip
Method: (§4) The toxicological study of 3-(2,2,2-trimethylhydrazinium)-propionate on white mice weighing 20-25 g has shown that with a single peroral administration to the animals in doses of up to 23,000 mg/kg the preparation causes no death of the animals.

[10] = system: white mice; assay: in vivo; settings: mouse
Method: as §4

[11] = system: chicks; assay: growth stimulator efficiency in chicks, 0.02% in feedstuff (Example 6, Table 1); assay type: in vivo; settings: 0.02% by weight in feedstuff
Method: as §3

[12] = 0.001% of the active principle, day 4
[13] = 0.001% of the active principle, day 8
[14] = 0.001% of the active principle, day 12
[15] = 0.001% of the active principle, day 16
[16] = 0.001% of the active principle, day 20
[17] = 0.01% of the active principle, day 4
[18] = 0.01% of the active principle, day 8
[19] = 0.01% of the active principle, day 12
[20] = 0.01% of the active principle, day 16
[21] = 0.01% of the active principle, day 20

## C[N+](C)(C)NCCC(=O)[O-] [3-(2,2,2-trimethylhydrazinium)-propionate]
[1]; ethanol and methanol
  solubility in ethanol and methanol: well soluble
[1]; water
  solubility in water: very readily soluble
[2]
  Average daily weight gain, percent of the control: 112.4% of the control
  Feedstuff consumption per 1 kg of the body weight gain, % of control: 92.9 % of control
  weight gain higher as compared to the control group animals: 7.4 kg
[2]; control 4.38
  Feedstuff consumption per 1 kg of the body weight gain: 4.07 feeding units
[2]; control 59.0 ± 2.1
  Body weight gain during the test period: 66.4 ± 3.6 kg
[2]; control 74.0 ± 3.2
  Average body weight by the test end: 88.2 ± 4.0 kg
[2]; control 285.5
  Feedstuff consumption during the test period: 270.7 feeding units
[2]; control 484 ± 17
  Average daily weight gain: 544 ± 32 g
[2]; vs control
  reduction of consumption of feeding units per kilogram of the weight gain: 7.1%
[3]; grain crops
  specific gravity of grain crops: increased
  yield gain of crops: 15-30%
[3]; oats, barley, rye, wheat
  increase in the stem diameter of crops: 15%
  stability against lodging: improving their stability against lodging
[3]; plants
  growth-controlling effect: clearly pronounced growth-controlling effect
[4]; 0.001% by weight of the daily diet
  increase of body weight gain of the rats: 12.5%
[4]; [12]
  Weight on the day of weighing: 76 g
[4]; [13]
  Weight on the day of weighing: 99 g
[4]; [14]
  Weight on the day of weighing: 131 g
[4]; [15]
  Weight on the day of weighing: 154 g
[4]; [16]
  Weight on the day of weighing: 164 g
[4]; 0.01% by weight of the daily diet
  increase of body weight gain of the rats: 12%
[4]; [17]
  Weight on the day of weighing: 79 g
[4]; [18]
  Weight on the day of weighing: 93 g
[4]; [19]
  Weight on the day of weighing: 125 g
[4]; [20]
  Weight on the day of weighing: 139 g
[4]; [21]
  Weight on the day of weighing: 158 g
[4]; 0.1% by weight of the daily diet
  effect on weight gain of the rats: substantially did not affect the weight gain
[4]; 0.1% of the active principle, day 4
  Weight on the day of weighing: 76 g
[4]; 0.1% of the active principle, day 8
  Weight on the day of weighing: 95 g
[4]; 0.1% of the active principle, day 12
  Weight on the day of weighing: 98 g
[4]; 0.1% of the active principle, day 16
  Weight on the day of weighing: 107 g
[4]; 0.1% of the active principle, day 20
  Weight on the day of weighing: 129 g
[4]; 0.1 to 0.001% by weight of the daily diet, perorally 10 days
  pathology of parenchymatous organs and peripheral blood: No pathology was observed
[5]
  chicks heavier by the end of the 34-days' period: 12.9%
[5]; control 261.9
  Average body weight of chicks, aged 30 days: 268.9 g
[5]; control 313 ± 3
  Average mass gain for the test time: 353 ± 8 g
[5]; control 364.3
  Average body weight of chicks, aged 40 days: 404.8 g
[5]; test beginning
  Average body weight of chicks, aged 6 days: 51.0 g
[5]; mass gain, control = 100.0
  Percentage to the control: 112.9%
[6]; 0.04% by weight, 2 months' age
  heavier than the microbless pig sucklings given no growth stimulant: 17.2%
  heavier than the sucklings grown under nonsterile conditions and given no growth stimulator: 18.2%
[6]; microbless mini-pigs, 0.04% by weight of feedstuff, untreated microbless 3,271 ± 385, ordinary 3,244 ± 335
  Animal weight at the 2-months' age: 3,833 ± 348 g
[7]; [12]
  Weight on the weighing day: 175 g
[7]; [13]
  Weight on the weighing day: 189 g
[7]; [14]
  Weight on the weighing day: 210 g
[7]; [15]
  Weight on the weighing day: 231 g
[7]; [16]
  Weight on the weighing day: 248 g
[7]; [17]
  Weight on the weighing day: 169 g
[7]; [18]
  Weight on the weighing day: 175 g
[7]; [19]
  Weight on the weighing day: 189 g
[7]; [20]
  Weight on the weighing day: 215 g
[7]; [21]
  Weight on the weighing day: 229 g
[7]; 0.1% of the principle, day 4
  Weight on the weighing day: 155 g
[7]; 0.1% of the principle, day 8
  Weight on the weighing day: 161 g
[7]; 0.1% of the principle, day 12
  Weight on the weighing day: 174 g
[7]; 0.1% of the principle, day 16
  Weight on the weighing day: 187 g
[7]; 0.1% of the principle, day 20
  Weight on the weighing day: 203 g
[7]; active principle 0.001% by weight of the dry feedstuff
  body weight gain: 13.5%
[7]; active principle 0.101% (so in the source) by weight of the dry feedstuff
  body weight gain: 9%
[8]; animals and fowl
  growth-stimulating activity: clearly pronounced growth-stimulating activity
[8]; depending on the variety of animals and fowl
  daily weight gain: 8-24%
[8]; test animals and fowl
  metabolism: metabolism is improved
  reduction of the rate of feedstock consumption per weight gain unit: 7-15%
[9]
  NOAEL: ≥ 10000 mg/kg
[10]
  single peroral dose causing no death of the animals: up to 23,000 mg/kg
[11]
  Average body weight of chicks, aged 30 days: 289.4 g
[11]; 34 days
  weight gain compared to the control chicks: 7.7%
[11]; 34 days, control 364.5 ± 10.1
  Average gain for the test time: 392.7
[11]; end of 34 days, control 412.2 g
  Average body weight of chicks, aged 40 days: 440.5 g
[11]; test beginning (6 days of age)
  Average body weight of chicks, aged 6 days: 47.8 g
[11]; average gain, control = 100.0
  Percentage to the control: 107.7%
